SMILES strings stand for the structures. Values joined by “and” are separate entries in the source; they are usually repeats but may differ in a detail not shown here. Equal entries are not always repeated.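 Exposure lasted 48 hours, with cells grown in 96-well plates and compounds tested at five concentrations. GI50 marks 50% less growth. Definition used: TGI = concentration required for complete inhibition of growth.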

TGI and GI50 data for nine compounds are collected here from PubChem BioAssay (NCI).

Test systems include A498 renal; K-562 leukemia; OVCAR-5 ovarian; RPMI-8226 leukemia; RXF 393 renal; SF-295 CNS; SK-MEL-5 melanoma; SNB-75 CNS; SR leukemia; SW-620 colon.
Holding throughout (assay): growth of human tumour cells (NCI), 48 h

As to `O=C1C/C(Br)=C\c2ccccc2-c2ccccc21`, the TGI stood at 22.5 µM in the experiment with A498 renal; 9.65 µM in the experiment on K-562 leukemia; 6.06 µM with OVCAR-5 ovarian; 5.28 µM with RPMI-8226 leukemia; 3.04 µM in the experiment with RXF 393 renal; 16.9 µM in the experiment on SF-295 CNS. The TGI in the experiment on SK-MEL-5 melanoma is 16 µM; in the experiment on SNB-75 CNS, 7.65 µM; in the experiment on SR leukemia, 2.73 µM; in the experiment with SW-620 colon, 2.98 µM.
For `C=CC12CCN(CC1)C(C(O)c1ccnc3ccc(OC)cc13)C2` (stereo not drawn), the GI50 in the experiment with A498 renal is 60.5 µM; in the experiment with K-562 leukemia, over 100 µM; in the experiment with OVCAR-5 ovarian it was over 100 µM; with RPMI-8226 leukemia, over 100 µM; in the experiment with RXF 393 renal, 80 µM; in the experiment with SF-295 CNS, over 100 µM. Also, the GI50 with SK-MEL-5 melanoma was 39.2 µM; with SNB-75 CNS it was 95.3 µM; in the experiment on SR leukemia, over 100 µM; with SW-620 colon it was over 100 µM. Besides, the TGI in the experiment with A498 renal, in the experiment on K-562 leukemia, with OVCAR-5 ovarian, in the experiment with RPMI-8226 leukemia, in the experiment on RXF 393 renal and in the experiment on SF-295 CNS was over 100 µM each time. The TGI with SK-MEL-5 melanoma, in the experiment on SNB-75 CNS, in the experiment on SR leukemia and with SW-620 colon was over 100 µM each time.
For `O=c1[nH]c(-c2cccc(F)c2)cc2cc(F)ccc12`, the GI50 in the experiment on A498 renal was 0.244 µM; in the experiment with K-562 leukemia it was 0.0698 µM; in the experiment on OVCAR-5 ovarian, 1.74 µM; in the experiment on RPMI-8226 leukemia, 0.355 µM; in the experiment on RXF 393 renal, 0.358 µM; in the experiment on SF-295 CNS, 0.305 µM. For the same compound, the GI50 with SK-MEL-5 melanoma is 0.334 µM; in the experiment on SNB-75 CNS, 0.211 µM; in the experiment on SR leukemia, 0.0712 µM; with SW-620 colon, 0.174 µM. The TGI was 2.94 µM in the experiment with A498 renal; over 100 µM in the experiment with K-562 leukemia; over 100 µM with OVCAR-5 ovarian; over 100 µM in the experiment on RPMI-8226 leukemia; over 100 µM in the experiment with SF-295 CNS; over 100 µM in the experiment on SK-MEL-5 melanoma. The TGI in the experiment with SNB-75 CNS, in the experiment with SR leukemia and in the experiment on SW-620 colon was over 100 µM in each case.
On to `O=c1cccc(C#CC#C[C@@H]2O[C@H]2CO)o1`, for which the GI50 in the experiment on A498 renal was 17.7 µM; in the experiment with K-562 leukemia, 1.49 µM; in the experiment with OVCAR-5 ovarian it was 0.49 µM; with RPMI-8226 leukemia, 1.7 µM; in the experiment with RXF 393 renal, 1.77 µM; in the experiment with SF-295 CNS, 2.64 µM. The GI50 with SK-MEL-5 melanoma was 1.87 µM; with SNB-75 CNS, 0.434 µM; in the experiment on SR leukemia it was 0.621 µM; in the experiment on SW-620 colon, 0.746 µM. The TGI in the experiment on A498 renal is 33.3 µM; with K-562 leukemia it was over 100 µM; in the experiment with OVCAR-5 ovarian it was 1.88 µM; in the experiment on RPMI-8226 leukemia, 5.49 µM; with RXF 393 renal it was 3.98 µM; with SF-295 CNS, 9.03 µM. Besides, the TGI in the experiment on SK-MEL-5 melanoma is 3.9 µM; with SNB-75 CNS, 4.07 µM; in the experiment with SR leukemia, over 100 µM; with SW-620 colon, 3.77 µM.
With `O=Cc1cc2c(cc1-c1cc3c(cc1C=O)OCO3)OCO2`, the TGI in the experiment on A498 renal was over 100 µM; with K-562 leukemia it was over 100 µM; in the experiment on OVCAR-5 ovarian it was over 100 µM; with RPMI-8226 leukemia, over 100 µM; in the experiment on RXF 393 renal it was 94.1 µM; in the experiment on SF-295 CNS, over 100 µM. Further, the TGI was over 100 µM with SK-MEL-5 melanoma, over 100 µM with SNB-75 CNS, 71 µM with SR leukemia and over 100 µM with SW-620 colon.
On to `COc1ccc(-c2cc(=O)oc3c4c(ccc23)OCN(Cc2ccc(F)cc2)C4)cc1`, for which the GI50 in the experiment on A498 renal was 1.23 µM; in the experiment on K-562 leukemia, 19.3 µM; with OVCAR-5 ovarian it was 18.4 µM; in the experiment with RPMI-8226 leukemia, 15.4 µM; in the experiment on RXF 393 renal it was 13 µM; with SF-295 CNS, 15 µM. For the same compound, the GI50 is 12.7 µM with SK-MEL-5 melanoma, 6.62 µM with SNB-75 CNS, 13 µM with SR leukemia and 16.3 µM with SW-620 colon. Further, the TGI in the experiment on A498 renal was determined as 10.3 µM; in the experiment with K-562 leukemia, 68.4 µM; in the experiment with OVCAR-5 ovarian it was 45.1 µM; in the experiment on RPMI-8226 leukemia, 37.1 µM; in the experiment on RXF 393 renal, 29.2 µM; with SF-295 CNS, 30 µM. In addition, the TGI with SK-MEL-5 melanoma turned out to be 25.4 µM; in the experiment with SNB-75 CNS, 25.3 µM; in the experiment on SR leukemia, 39.9 µM; in the experiment with SW-620 colon, 31.8 µM.
As to `NC(=O)c1cc(I)ccc1NC(=O)/C=C/c1ccccc1`, the GI50 in the experiment with A498 renal was 1.28 µM; in the experiment on K-562 leukemia, 0.668 µM; in the experiment on OVCAR-5 ovarian it was 3.17 µM; in the experiment with RPMI-8226 leukemia it was 0.357 µM; with RXF 393 renal it was 0.989 µM; in the experiment on SF-295 CNS, 0.326 µM. For the same compound, the GI50 with SK-MEL-5 melanoma is 0.38 µM; in the experiment on SNB-75 CNS, 0.316 µM; in the experiment on SR leukemia, 0.419 µM; in the experiment on SW-620 colon it was 0.48 µM. Besides, the TGI in the experiment on A498 renal is 13 µM; in the experiment on K-562 leukemia it was over 100 µM; in the experiment with OVCAR-5 ovarian, over 51.8 µM; with RPMI-8226 leukemia, 4.96 µM; in the experiment on RXF 393 renal, 22.8 µM; in the experiment with SF-295 CNS it was 3.38 µM. In addition, the TGI is 12.5 µM with SK-MEL-5 melanoma, 8.68 µM with SNB-75 CNS and over 100 µM in the experiment on SW-620 colon.
Take `COc1c(C)c(OCC=C(C)C)cc(CO)c1CO`: the TGI with A498 renal is over 100 µM; in the experiment with K-562 leukemia it was over 100 µM; in the experiment with OVCAR-5 ovarian, over 100 µM; with RPMI-8226 leukemia, over 100 µM; in the experiment on RXF 393 renal, 78.2 µM; in the experiment with SF-295 CNS, over 100 µM. Besides, the TGI in the experiment with SK-MEL-5 melanoma was 59.1 µM; in the experiment with SNB-75 CNS, over 100 µM; in the experiment with SR leukemia it was over 100 µM; in the experiment with SW-620 colon, over 100 µM.
As for `CC(C)=CCC1=C(O)c2ccccc2C(=O)C1=O`, the TGI in the experiment on A498 renal, in the experiment on K-562 leukemia, in the experiment on OVCAR-5 ovarian, in the experiment on RPMI-8226 leukemia, in the experiment on RXF 393 renal and in the experiment with SF-295 CNS was over 100 µM throughout. Further, the TGI in the experiment with SK-MEL-5 melanoma was 27 µM and 28 µM; in the experiment on SNB-75 CNS, over 100 µM; in the experiment with SR leukemia it was over 100 µM; with SW-620 colon, over 100 µM. Moreover, the GI50 in the experiment on OVCAR-5 ovarian was 56.2 µM; in the experiment on RXF 393 renal, over 100 µM; in the experiment with SF-295 CNS, > 100 µM and 22.7 µM; with SK-MEL-5 melanoma, 11.2 µM; in the experiment on SW-620 colon it was > 100 µM and 34.6 µM and 22.9 µM.
